# According to patent publication US8563555B2, “Pharmaceutical compositions containing a crystalline form of posaconazole” (Sandoz AG, priority 2008, dated 2013):
# Where “and” joins values, the source holds several entries; their conditions need not be identical. Equal values may be shown once.
# Assays:
# [1] = Particle size distribution (Malvern, laser diffraction) in suspension; assay type: physicochemical; details: for Mean particle size (D4,3-value) / Median particle size (d (0.5)-value): non-micronized form, in suspension, after 5 min ultrasonic treatment
# Protocol: Crystalline form Y in a non-micronized form as obtained by Example 1 was used to prepare 25 ml of a suspension as follows:
# The suspension was prepared analogously to the method described in Example 6 up to and including the addition of glycerol and liquid glucose. Subsequently, titanium oxide was added under mixing with a suitable homogenizer, followed by the addition of the cherry flavour and of the remaining portion of 56% of the final amount of purified water under mixing until a uniform suspension was obtained.
# 25 ml of a similar suspension, but without cherry flavour and using 12.148 g of purified water, was prepared analoguously using non-micronized crystalline form I of posaconazole.
# The particle size distribution (Malvern) was measured according to the USP <429> and EP 2.9.31. based on the diffraction of laser by particles using a Mastersizer 2000S liquid dispersion system. The particle size measurement was started after ultrasonic treatment of the sample for 5 min.
# [2] = Specific surface measurement, BET method; assay type: physicochemical; details: for Specific Surface: nitrogen at 77° K, non-micronized
# Protocol: Specific surface measurement was performed with the equipment NOVA 2000 as commercially available from Quantachrome Instruments using the BET method and Nitrogen as the absorbed gas at 77° K (i.e. −196.15° C.) as described e.g. by Medema J, Campagne A.: A Simple Method to Determine Cumulative Surface-Area Distributions of Porous Solids; Journal of Catalysis, Volume 8, Issue 2, pp. 120, 1967.
# [3] = Solid state stability of form Y (HPLC assay, polymorphic form); assay type: physicochemical
# Protocol: HPLC assay was performed by applying the following conditions: • Column: ZORBAX XDB-C18 Rapid Resolution HT, 1.8 μm, 50×4.6 mm (Agilent Technologies) • Eluent A: Dilute 2 ml of acetic acid (99-100%) with water and fill up to 1000 ml with water. Adjust pH to 6.5 with 2.5% ammonia. • Eluent B: water/acetonitrile=50/50 (v/v) • Flow rate: 0.8 ml/min • Temperature: 40° C. • Detection: UV at 260 nm • Gradient:
# The solid state stability of form Y was determined by storing approximately 1.0 g of the material in a glass bottle at a) 60° C./100% Relative Humidity (RH), open exposure, for 24 hours and b) at 140° C., closed, for 3 days.
# The material was assayed by HPLC for final content and degradation products.
# [4] = Moisture sorption isotherm; assay type: physicochemical; details: 0-95% RH, 25° C.
# Protocol: The moisture sorption isotherm was recorded with a SPS-11 moisture sorption analyzer (MD Mess-technik, Ulm, D). The measurement cycle was started at 0% relative humidity (RH), increased in 10% steps up to 90% RH and in a 5% step up to 95% RH. The equilibrium condition for each step was set to a constant mass ±0.003% over 49 min. The temperature was 25±0.1° C.
# [5] = Dissolution from suspension, USP <711> apparatus II; assay type: physicochemical; details: suspension of Example 7, paddle 25 rpm, 0.3% SLS aqueous solution
# Protocol: Non-micronized form Y and non-micronized form I were incorporated into formulations having compositions and being prepared according to Example 7.
# Dissolution of Form Y and Form I from those formulations was tested according to USP 32 (2009) method <711> (USP apparatus II (Paddle); 25 rpm; dissolution medium: 0.3% SLS aqueous solution). Posaconzole concentrations were determined with an online photometer (UV absorption at 260 nm).
# [6] = Equilibrium solubility method in water; assay type: physicochemical
# Protocol: The solubility of form Y was determined by the equilibrium solubility method, which employed a saturated solution of form Y, obtained by stirring 250 mg form Y in 6 ml water over night. The sample was filtered through a 0.45 μm membrane filter and the concentration of form Y in the filtrate was measured using a Perkin Elmer Lambda 35 UV/VIS spectrophotometer (λ=260 nm).
# [7] = Stability of form Y within a pharmaceutical formulation (XRPD); assay type: physicochemical; details: suspension stored at room temperature for 7 weeks
# Protocol: 25 ml of a suspension containing form Y were prepared as follows:
# 40% of the final amount of Polysorbat 80 and 40% of the final amount of simethicon were mixed and dissolved and/or dispersed in about 12% of the final amount of purified water and homogenized with Ultra Turrax (30 seconds; 27,000 rpm). Subsequently, 1 g of form Y of posaconazole were suspended or dispersed in this mixture under homogenization by Ultra Turrax (27,000 rpm, 2 minutes). The remaining 60% of Polysorbat 80 and of simethicon and 32% of the final amount of the purified water were added and mixed followed by the addition of sodium benzoate, sodium citrate dehydrate and citric acid monohydrate. After further mixing, xanthan gum was added to the mixture under stirring, followed by a 30 minutes phase of hydratization without mixing. Subsequently, glycerol and liquid glucose and of the remaining portion of 56% of the final amount of purified water were added under mixing until a uniform suspension was obtained.
# This suspension was stored at room temperature for 7 weeks. A sample of approximately 1 g of the suspension was dried under vacuum over night at room temperature. […]
# [8] = Stability of an aqueous suspension of form Y; assay type: physicochemical; details: 120 mg in 3 ml water, room temperature, 4 days
# Protocol: 120 mg form Y were suspended in 3 ml water and the suspension was stirred at room temperature.
# [9] = cited from earlier work
# [10] = 60° C./100% RH, open exposure, 24 hours
# [11] = listed as crystalline form Y of posaconazole
compound,measurement,setting,value
"CC[C@@H]([C@H](C)O)n1ncn(-c2ccc(N3CCN(c4ccc(OC[C@@H]5CO[C@@](Cn6cncn6)(c6ccc(F)cc6F)C5)cc4)CC3)cc2)c1=O [Crystalline Form I, posaconazole]","Mean particle size (D4,3-value)",[1],35.1 μm
same,Median particle size (d (0.5)-value),[1],31.3 μm
same,Specific Surface,[2]; listed as Crystalline Form I of posaconazole,1.5 m^2/g and 1.6 m^2/g
"CC[C@@H]([C@H](C)O)n1ncn(-c2ccc(N3CCN(c4ccc(OC[C@@H]5CO[C@@](Cn6cncn6)(c6ccc(F)cc6F)C5)cc4)CC3)cc2)c1=O [Crystalline Form Y, posaconazole]",HPLC assay (% initial),[3]; [10],99.9%
same,degradation,[3]; [10],No significant degradation observed
same,HPLC assay (% initial),"[3]; 140° C., closed, 3 days",99.9%
same,degradation,"[3]; 140° C., closed, 3 days",No significant degradation observed
same,polymorphic conversion,"[3]; 24 hours at 100% RH, 60° C.",not converted into another polymorphic form
same,water uptake,[4],≤ 0.4%
same,fold smaller mean particle size compared to non-micronized form I,[1]; non-micronized,about 4 fold
same,fold smaller median particle size compared to non-micronized form I,[1]; non-micronized,about 5 fold
same,"Mean particle size (D4,3-value)",[1],9.9 μm
same,Median particle size (d (0.5)-value),[1],6.0 μm
same,"Mean particle size (D4,3-value)",[1]; [11],about 10±2 μm
same,Median particle size (d (0.5)-value),[1]; [11],about 6±2 μm
same,dissolution compared to non-micronized form I,[5],clearly faster dissolution
same,water solubility of form Y relative to form I (times higher),[6],about two
same,solubility,"[6]; thermodynamic from solid, saturated solution stirred over night, 0.45 μm filtrate, UV 260 nm",1.5 µg/mL
same,polymorphic conversion in suspension (XRPD),[7],no conversion to another polymorphic form had occurred
same,fold larger specific area compared to crystalline form I,[2],about 2.4 fold
same,Specific Surface,[2]; listed as Crystalline Form Y of posaconazole,3.6 m^2/g and 3.7 m^2/g
same,Specific Surface,[2]; [11],about 4±1 m^2/g
same,physicochemical properties of the solid after stirring in water,[8],the same as the physicochemical properties of form Y obtained in Example 1
"CC[C@@H]([C@H](C)O)n1ncn(-c2ccc(N3CCN(c4ccc(OC[C@@H]5CO[C@@](Cn6cncn6)(c6ccc(F)cc6F)C5)cc4)CC3)cc2)c1=O [posaconazole, 2,5-anhydro-1,3,4-trideoxy-2-C-(2,4-difluorophenyl)-4-[[4-[4-[4-[1-[(1S,2S)-1-ethyl-2-hydroxypropyl]-1,5-dihydro-5-oxo-4H-1,2,4-triazol-4-yl]phenyl]-1-piperazinyl]phenoxy]methyl]-1-(1H-1,2,4-triazol-1-yl)-D-threopentitol]",log P,[9],> 3
